Data taken from paper PMC6830296 (Journal of Enzyme Inhibition and Medicinal Chemistry, 2019).
Where two headings read alike, the source gives them in different places.

Experiments:
LdcCA = molecular target: T1, LdcCA (Leishmania infantum, UniProt A4HSV2); conditions: read-out: KI (μM)^a / LdcCA; CO2 hydration, TRIS pH 8.3, 20 mM Na2SO4, 1 h preincubation at room temperature
T1 construct: gene LINJ_06_0630
T1 sequence (A4HSV2 1-306): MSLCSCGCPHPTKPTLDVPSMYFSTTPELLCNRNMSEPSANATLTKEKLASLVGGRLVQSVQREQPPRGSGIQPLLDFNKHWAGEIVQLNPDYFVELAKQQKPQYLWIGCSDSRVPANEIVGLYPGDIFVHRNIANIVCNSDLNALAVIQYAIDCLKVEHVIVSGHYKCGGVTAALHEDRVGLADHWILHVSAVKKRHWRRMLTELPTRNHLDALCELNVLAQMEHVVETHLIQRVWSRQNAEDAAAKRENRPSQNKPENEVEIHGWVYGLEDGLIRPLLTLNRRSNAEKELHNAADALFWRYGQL

CgNce [1] = molecular target: T2, CgNce (Nakaseomyces glabratus, UniProt Q6FTL6); conditions: read-out: KI (μM)^a / CgNce; CO2 hydration, TRIS pH 8.3, 20 mM Na2SO4, 1 h preincubation at room temperature
T2 construct: gene NCE103

BpsCAβ = molecular target: T3, BpsCAβ (Burkholderia pseudomallei, UniProt Q63Y17); assay type: biochemical; conditions: read-out: KI (μM)^a / BpsCAβ
T3 construct: gene BPSL0372

Can2 = molecular target: T4, Can2 (Cryptococcus neoformans, UniProt Q3I4V7); assay type: biochemical
T4 construct: recombinant, obtained in-house
T4 sequence (Q3I4V7 1-239): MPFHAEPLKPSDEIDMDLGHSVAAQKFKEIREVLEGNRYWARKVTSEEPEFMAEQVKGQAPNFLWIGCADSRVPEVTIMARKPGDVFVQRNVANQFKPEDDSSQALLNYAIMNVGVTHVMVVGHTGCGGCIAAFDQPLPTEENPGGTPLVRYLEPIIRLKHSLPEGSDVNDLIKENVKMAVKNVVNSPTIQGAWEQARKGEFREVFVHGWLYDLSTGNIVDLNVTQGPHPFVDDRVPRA

FtuβCA = molecular target: T5, FtuβCA (Francisella tularensis, UniProt Q5NH77); assay type: biochemical; conditions: read-out: KI (μM)^a / FtuβCA
T5 construct: gene cynT

VChβ [2] = molecular target: T6, VChβ (Vibrio cholerae, UniProt Q9KUD6); conditions: read-out: KI (μM)^a / VChβ; CO2 hydration, TRIS pH 8.3, 20 mM Na2SO4, 1 h preincubation at room temperature
T6 construct: gene VC_0586

CgNce [3] = molecular target: T2, CgNce; test: biochemical
VChβ [4] = molecular target: T6, VChβ; test: biochemical
MgCA = molecular target: T7, MgCA (Malassezia globosa, UniProt A8Q1N3); test: biochemical
T7 construct: gene MGL_1814
T7 sequence (A8Q1N3 1-241): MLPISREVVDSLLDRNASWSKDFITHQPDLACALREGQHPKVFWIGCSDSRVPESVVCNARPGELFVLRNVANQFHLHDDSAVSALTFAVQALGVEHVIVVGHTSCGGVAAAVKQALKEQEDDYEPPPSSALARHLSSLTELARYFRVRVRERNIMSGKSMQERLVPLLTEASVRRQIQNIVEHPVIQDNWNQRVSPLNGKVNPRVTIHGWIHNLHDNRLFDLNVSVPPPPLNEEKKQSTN

T5 sequence (Q5NH77 1-228): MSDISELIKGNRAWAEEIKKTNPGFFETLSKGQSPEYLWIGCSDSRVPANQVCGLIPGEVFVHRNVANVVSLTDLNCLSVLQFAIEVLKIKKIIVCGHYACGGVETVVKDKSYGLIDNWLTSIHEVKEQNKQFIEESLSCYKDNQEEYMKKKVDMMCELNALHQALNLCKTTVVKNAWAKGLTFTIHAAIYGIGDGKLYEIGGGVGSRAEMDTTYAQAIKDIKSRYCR
T2 sequence (Q6FTL6 entry or part of it): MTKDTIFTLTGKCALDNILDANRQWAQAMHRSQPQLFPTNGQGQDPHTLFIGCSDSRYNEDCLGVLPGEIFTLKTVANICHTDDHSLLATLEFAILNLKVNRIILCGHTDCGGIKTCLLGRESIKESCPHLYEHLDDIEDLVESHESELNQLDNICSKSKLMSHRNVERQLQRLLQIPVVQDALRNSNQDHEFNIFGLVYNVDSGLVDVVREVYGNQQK
T3 sequence (Q63Y17 1-256): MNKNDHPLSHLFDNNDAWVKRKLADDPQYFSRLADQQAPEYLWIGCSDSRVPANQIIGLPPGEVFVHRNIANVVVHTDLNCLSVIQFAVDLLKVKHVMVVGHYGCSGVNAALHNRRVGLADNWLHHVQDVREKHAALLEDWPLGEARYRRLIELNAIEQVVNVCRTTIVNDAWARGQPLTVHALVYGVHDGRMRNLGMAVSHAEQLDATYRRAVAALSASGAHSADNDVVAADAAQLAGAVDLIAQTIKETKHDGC
T6 sequence (Q9KUD6 1-222): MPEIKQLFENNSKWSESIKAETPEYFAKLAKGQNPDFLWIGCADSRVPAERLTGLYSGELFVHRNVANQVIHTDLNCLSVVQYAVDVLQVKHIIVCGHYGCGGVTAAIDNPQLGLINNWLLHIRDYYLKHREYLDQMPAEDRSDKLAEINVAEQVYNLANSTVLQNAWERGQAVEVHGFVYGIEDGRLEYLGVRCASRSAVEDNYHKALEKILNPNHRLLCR

SMILES | Ki (LdcCA) [µM] | Ki (CgNce [1]) [µM] | Ki (BpsCAβ) [µM] | Ki (Can2; CO2 hydration, TRIS pH 8.3, 20 mM Na2SO4, 1 h preincubation at room temperature, read-out: KI (μM)^a / Can2) [µM] | Ki (FtuβCA) [µM] | Ki (VChβ [2]) [µM] | Ki (CgNce [3]) [µM] | Ki (VChβ [4]) [µM] | Ki (Can2; read-out: KI (μM)^a / Can2) [µM] | Ki (MgCA) [µM] | Ki (Can2) [µM]
NP(N)(=O)c1ccccc1 [compound 2, phenylphosphonic diamide 2] | 2.1 | 0.05 | 2.5 | 0.03 | 10.3 | 0.9 |  |  |  |  | 
COP(N)(=O)c1ccccc1 (centres unmarked) [compound 3, methyl phosphonamidate 3] | 0.8 |  | 2.1 |  | 8.5 |  | 0.2 | 0.5 | 0.02 |  | 
CCOP(N)(=O)c1ccccc1 (centres unmarked) [compound 4, ethyl derivative 4] | 3.5 |  | 4.6 |  |  |  | 0.8 | 9.5 | 0.05 |  | 
CCCOP(N)(=O)c1ccccc1 (centres unmarked) [compound 5, propyl (5)] | 6.8 |  | 12.6 |  | 35.6 |  | 1.3 | 15.4 | 0.9 | 79 | 
CC(C)OP(N)(=O)c1ccccc1 (centres unmarked) [compound 6, isopropyl (6)] | 5.1 |  | 5.8 |  | 18.4 |  | 0.7 | 7.3 | 0.1 |  | 
CCCCOP(N)(=O)c1ccccc1 (centres unmarked) [compound 7, alkyl phosphonamidate 7] |  |  | 22.5 |  | 42 |  | 5.3 | 26.8 | 2.2 |  | 
NP(=O)(OCCCl)c1ccccc1 (centres unmarked) [compound 9, alkyl phosphonamidate 9] |  |  | 32.7 |  | 15.1 |  | 1.8 | 34.7 |  |  | 0.6
C#CCOP(N)(=O)c1ccccc1 (centres unmarked) [compound 10, propargyl phosphonamidate 10] | 19.3 |  | 18.9 |  | 6.9 |  | 20.2 | 20.9 | 5.3 | 97.4 | 
